Experimental data reported in article PMC8402032, “Unsymmetric Cisplatin-Based Pt(IV) Conjugates Containing a PARP-1 Inhibitor Pharmacophore Tested on Malignant Pleural Mesothelioma Cell Lines” (Molecules, 2021).

Experiments:
[1] = Lipophilicity by RP-HPLC (log k′); type: physicochemical; conditions: RP-HPLC C18, 15 mM formic acid/CH3OH 30/70
Source text: Since it has been reported that Pt(IV) complexes enter cells by passive diffusion only, with a few exceptions, the evaluation of lipophilicity is key because it is related to the ability of a molecule to passively cross cellular membranes. RP-HPLC techniques are often used to measure the lipophilicity of a compound, since the retention is due to partitioning between the C18 chains of the stationary phase (representing the cellular membrane) and the aqueous eluent (representing the water inside and outside cells). For this purpose, the retention times (tR) of the complexes were transformed as log k′, where k′ = (tR − t0)/t0) and t0 is the column dead-time (Table 1).
RP-HPLC was used to evaluate the capacity factors of the compounds as reported elsewhere. Briefly, a chromatogram for each Pt complex (0.5 mM) was run on a C18 column Phenosphere-NEXT (5-μm, 250 × 4.6 mm ID) with an eluant composition of 15 mM formic acid/CH3OH 30/70 and a flow rate of 0.5 mL min^−1. The corresponding retention time tR was used to calculate log k′, where k′ = (tR − t0)/t0. The dead time of the column t0 was the tR of KCl, added as unretained internal reference.

MSTO-211H cells = test: Cell uptake (intracellular Pt by ICP-MS); type: cell-based, human; conditions: 10 μM, 4 h treatment, mean ± sd
Protocol: Cellular accumulation of compounds 6–9 was evaluated by means of the intracellular Pt uptake after 4 h treatment of MSTO-211H cells and expressed as ng Pt per 10^6 cells (Table 1). As expected, the Fmoc protection of 6 and 7 enhances the lipophilicity of the complexes, facilitating their cell uptake. Also the elongation of the organic linker from -(CH2)2- to -(CH2)6- increases (to a minor extent) the lipophilicity in 7 and 9 with respect to 6 and 8.
MSTO-211H cells were seeded in […] Petri dishes and challenged with the compounds and mixtures under investigations (10 μM) in complete medium. At the end of the exposure, cells were washed three times with phosphate buffered saline (PBS) and detached from the Petri dishes using 0.05% Trypsin 1X + 2% EDTA (HyClone, Thermo Fisher). The cells were harvested in fresh complete medium and an automatic cell counting device (Countess®, Life Technologies, Carlsbad, CA, USA) was used to measure the number and the mean diameter from every cell count. The harvested cells were transferred into a borosilicate glass tube and centrifuged at 1100× g rpm for 5 min at room temperature. The supernatant was carefully removed by aspiration, but about 200 μL of the supernatant was left in order to limit the cellular loss. Finally, the cellular pellets were stored at −80 °C. Platinum content determination was performed by ICP-MS (Thermo Optek X Series 2). Complete mineralization was obtained by the addition of 70% w/w HNO3 to each sample (after defrosting), followed by incubation for 1 h at 60 °C in an ultrasonic bath. Before the ICP-MS measurement, the HNO3 was diluted to a final 1% concentration. The instrumental settings were optimized to yield maximum sensitivity for platinum, and the most abundant isotopes of Pt (m/z = 195) and In (m/z = 115, used as internal standard) were quantified. The level of Pt found in cells after the treatment was normalized to the cell number and expressed as ng of Pt per 10^6 cells.

[2] = tested on: MM98 (sarcomatoid) malignant pleural mesothelioma cells; test: Cell viability assay (Trypan blue dye exclusion), MM98; type: cell-based, human; conditions: 72 h treatment
Protocol: Complexes 6–9 were tested on a panel of human MPM cell lines together with CDDP and SAA1, added for comparison (Table 1). The half-maximal inhibitory concentration, IC50, was determined on MSTO-211H (biphasic phenotype), REN (epithelioid), BR95 (epithelioid), and MM98 (sarcomatoid) cancer cell lines to identify the most promising Pt(IV) conjugate to be further investigated. To determine the number of viable cells, the use of the dye exclusion assay was preferred to the colorimetric assay because of the heterogeneity in the energy metabolism between the different MPM cell lines. This may justify minor differences with respect to the previously published IC50 for CDDP [40].
Cells were seeded at a density of 10 × 10^4 cells per well in 6-well plates in RPMI medium supplemented with 10% fetal bovine serum (FBS), 100 μg mL^−1 streptomycin, and 10 μg mL^−1 penicillin and incubated overnight at 37 °C in a humidified environment containing 5% CO2 to allow adherence. Cisplatin was dissolved in 0.9% w/v aqueous NaCl brought to pH = 3 with HCl (final stock concentration 1 mM). The Pt(IV) complexes were dissolved in DMSO (final stock concentration 5 mM); the resulting solutions were microfiltered (0.45 μm) and their Pt content was checked by ICP-MS (see Section 3.5.2). These mother solutions were diluted in complete medium to the required concentration range.
Following 72 h of treatment with the diluent of the compound (Ctrl) or different doses of the Pt compounds, cells were trypsinized and stained with Trypan blue. The number of cells considered viable (unstained cells) was counted in a Bürker haemocytometer within 5 min after staining.

PARP-1 = test: Western blot analysis of PARP-1 expression in MSTO-211H cells; type: cell-based, human; conditions: 72 h, equitoxic (IC50) concentrations, whole cell lysate
Protocol: It is necessary to verify how much the presence of the bulky Fmoc group might affect the recognition of the PARP catalytic domain. It is important to recall that all PARPis designed as analogues of nicotinamide must contain a primary or secondary amide. Indeed, this is the case of 6 [27]. The effects of compounds 6–9 on the expression of PARP-1 were evaluated by treating MSTO-211H cells for 72 h with equitoxic (at their IC50) concentrations of complexes, followed by Western blot analysis of whole cell lysate. […] First of all, the higher cellular uptake of 6 and 7 increases the intracellular concentration of the Pt metabolite and, in particular, of the ligands, potentially PARPis (synergistic cellular accumulation). […]
For protein analysis, cells were extracted with 1% NP-40 lysis buffer (50 mM Tris-HCl pH 8.5 containing 1% NP-40, 150 mM NaCl, 10 mM EDTA, 10 mM NaF, 10 mM Na4P2O7, and 0.4 mM Na3VO4) with freshly added protease inhibitors (10 μg mL^−1 leupeptin, 4 μg mL^−1 pepstatin, and 0.1 U mL^−1 aprotinin). […] Following SDS-PAGE, proteins were transferred to nitrocellulose, reacted with specific antibodies, and then detected with peroxidase-conjugate secondary antibodies and chemioluminescent ECL reagent. Digital images were taken with the Bio-Rad ChemiDocTM Touch Imaging System and quantified using Bio-Rad Image Lab 5.2.1. […]

Question: Which results are given for `CC(=O)[O][Pt]([NH2])([NH2])([Cl])([Cl])[O]C(=O)CCNC(=O)c1cccc(NC(=O)OCC2c3ccccc3-c3ccccc32)c1` [Compound 6, (OC-6-44)-Acetato[3-(3-(fmoc-amino)-benzamido)-propanoato]-diammine-dichlorido-platinum(IV)]?
Answer: Log k′ [1]: 4.22; Pt Uptake (MSTO-211H cells): 10.64 ± 1.77 ng Pt per 10^6 Cells; ratio IC50 (cisplatin)/IC50 (Pt(IV) complex), MM98 [2]: 1.8; IC50 ([2]; mean ± sd): 980 ± 30 nM; PARP-1 expression (PARP-1): lower expression of PARP-1 in the series
